Laboratory results reported in US20220204439A1, “LIPIDS AND LIPID NANOPARTICLE FORMULATIONS FOR DELIVERY OF NUCLEIC ACIDS” (Acuitas Therapeutics, Inc., priority 2015, published 2022).

Tests used:
[1] = pKa of formulated cationic lipids in lipid nanoparticles (TNS fluorescence assay); format: physicochemical; conditions: probe 2-(p-toluidino)-6-napthalene sulfonic acid (TNS), 1 µM final; formulated in LNP cationic lipid/DSPC/cholesterol/PEG-lipid 50/10/38.5/1.5 mol %; pH of half-maximal TNS fluorescence
Description: As described elsewhere, the pKa of formulated cationic lipids is correlated with the effectiveness of LNPs for delivery of nucleic acids (see Jayaraman et al, Angewandte Chemie, International Edition (2012), 51(34), 8529-8533; Semple et al, Nature Biotechnology 28, 172-176 (2010)). The preferred range of pKa is ˜5 to ˜7. […] Lipid nanoparticles comprising of cationic lipid/DSPC/cholesterol/PEG-lipid (50/10/38.5/1.5 mol %) in PBS at a concentration of 0.4 mM total lipid are prepared using the in-line process as described in Example 28. TNS was prepared as a 100 μM stock solution in distilled water. Vesicles were diluted to 24 μM lipid in 2 mL of buffered solutions containing, 10 mM HEPES, 10 mM MES, 10 mM ammonium acetate, 130 mM NaCl, where the pH ranged from 2.5 to 11. An aliquot of the TNS solution was added to give a final concentration of 1 μM and following vortex mixing fluorescence intensity was measured at room temperature in a SLM Aminco Series 2 Luminescence Spectrophotometer using excitation and emission wavelengths of 321 nm and 445 nm. A sigmoidal best fit analysis was applied to the fluorescence data and the pKa was measured as the pH giving rise to half-maximal fluorescence intensity (see FIG. 2).

[2] = system: luciferase expression in the liver; experiment: In vivo luciferase mRNA expression in mouse liver with lipid nanoparticle formulations; set-up: species or system C57BL/6 mice; conditions: tail vein injection, liver 4 hours after administration, FLuc mRNA; for Liver Luc @ 0.3 mg/kg (ng luc/g liver) / Liver Luc @ 0.3 mg/kg dose: 0.3 mg mRNA/kg; for Liver Luc @ 0.3 mg/kg (ng luc/g liver) / Liver Luc @ 1.0 mg/kg (ng luc/g liver): LNP 50% cationic lipid/10% DSPC/38.5% cholesterol/1.5% PEG-DMA; for Liver Luc @ 1.0 mg/kg (ng luc/g liver) / Liver Luc @ 1.0 mg/kg dose: 1.0 mg mRNA/kg; for Liver Luc @ 0.3 mg/kg dose / Liver Luc @ 1.0 mg/kg dose: LNP 50% cationic lipid/10% DSPC/38.5% cholesterol/1.5% PEG-DMG
Description: Cationic lipid (MC3), DSPC, cholesterol and PEG-lipid were solubilized in ethanol at a molar ratio of 50:10:38.5:1.5. Lipid nanoparticles (LNP) were prepared at a total lipid to mRNA weight ratio of approximately 10:1 to 30:1. Briefly, the mRNA was diluted to 0.2 mg/mL in 10 to 50 mM citrate buffer, pH 4. Syringe pumps were used to mix the ethanolic lipid solution with the mRNA aqueous solution at a ratio of about 1:5 to 1:3 (vol/vol) with total flow rates above 15 ml/min. The ethanol was then removed and the external buffer replaced with PBS by dialysis. Finally, the lipid nanoparticles were filtered through a 0.2 μm pore sterile filter. Lipid nanoparticle particle size was 70-90 nm diameter as determined by quasi-elastic light scattering using a Nicomp 370 submicron particle sizer (Santa Barbara, Calif.).
Studies were performed in 6-8 week old female C57BL/6 mice (Charles River) according to guidelines established by an institutional animal care committee (ACC) and the Canadian Council on Animal Care (CCAC). Varying doses of mRNA-lipid nanoparticle were systemically administered by tail vein injection and animals euthanized at specific time points (1, 2, 4, 8 and 24 hrs) post-administration. Liver and spleen were collected in pre-weighted tubes, weights determined, immediately snap frozen in liquid nitrogen and stored at −80° C. until processing for analysis.
For liver, approximately 50 mg was dissected for analyses in a 2 mL FastPrep tubes (MP Biomedicals, Solon Ohio). ¼″ ceramic sphere (MP Biomedicals) was added to each tube and 500 μL of Glo Lysis Buffer—GLB (Promega, Madison Wis.) equilibrated to room temperature was added to liver tissue. Liver tissues were homogenized with the FastPrep24 instrument (MP Biomedicals) at 2×6.0 m/s for 15 seconds. Homogenate was incubated at room temperature for 5 minutes prior to a 1:4 dilution in GLB and assessed using SteadyGlo Luciferase assay system (Promega). Specifically, 50 μL of diluted tissue homogenate was reacted with 50 μL of SteadyGlo substrate, shaken for 10 seconds followed by 5 minute incubation and then quantitated using a CentroXS^3 LB 960 luminometer (Berthold Technologies, Germany). The amount of protein assayed was determined by using the BCA protein assay kit (Pierce, Rockford Ill.). Relative luminescence units (RLU) were then normalized to total ug protein assayed. To convert RLU to ng luciferase a standard curve was generated with QuantiLum Recombinant Luciferase (Promega). Based in the data provided in FIG. 1, the four-hour time point was chosen for efficacy evaluation of the lipid formulations (see Example 29).
The FLuc mRNA (L-6107) from Trilink Biotechnologies will express a luciferase protein, originally isolated from the firefly, Photinus pyralis. FLuc is commonly used in mammalian cell culture to measure both gene expression and cell viability. It emits bioluminescence in the presence of the substrate, luciferin. This capped and polyadenylated mRNA is fully substituted with 5-methylcytidine and pseudouridine.
The cationic lipids shown in Table 2 have previously been tested with nucleic acids. For comparative purposes, these lipids were also used to formulate lipid nanoparticles containing the FLuc mRNA (L-6107) using an in line mixing method, as described in example 28 and in PCT/US10/22614, which is hereby incorporated by reference in its entirety. […] Relative activity was determined by measuring luciferase expression in the liver 4 hours following administration via tail vein injection as described in example 28. The activity was compared at a dose of 0.3 and 1.0 mg mRNA/kg and expressed as ng luciferase/g liver measured 4 hours after administration, as described in Example 28. […]

SMILES	pKa [1]	Liver Luc @ 0.3 mg/kg (ng luc/g liver) [2] [ng luc/g liver]	Liver Luc @ 1.0 mg/kg (ng luc/g liver) [2] [ng luc/g liver]	Liver Luc @ 0.3 mg/kg dose [2] [ng luciferase/g liver]	Liver Luc @ 1.0 mg/kg dose [2] [ng luciferase/g liver]
CCCCC/C=C\C/C=C\CCCCCCCCC(CCCCCCCC/C=C\C/C=C\CCCCC)N(CCCN(C)C)C(=O)C(CC)CCCCC (centres unmarked) [Compound 7]	5.93	833 ± 401	8859 ± 780		
CCCCC/C=C\C/C=C\CCCCCCCCC(CCCCCCCC/C=C\C/C=C\CCCCC)NCCCN(C)C [A, reference compound]	7.05				
CCCCC/C=C\C/C=C\CCCCCCCCC(CCCCCCCC/C=C\C/C=C\CCCCC)N(CCCCCCCCC)CCCN(C)C [Compound 1]	5.64	54 ± 8	226 ± 20		
CCCCCCCCC(CCCCCC)COC(=O)CCCCCC(CCCCCC(=O)OCC(CCCCCC)CCCCCCCC)N(CCCN(C)C)C(=O)CCCCCCCC(=O)OCC (centres unmarked) [Compound 40]	6.57	753 ± 156	2203 ± 1555		
CCCCC/C=C\C/C=C\CCCCCCCCC(CCCCCCCC/C=C\C/C=C\CCCCC)N(C)CCN(C)C [B, reference compound]	6.17	95 ± 41	1131 ± 384		
CCCCC/C=C\C/C=C\CCCCCCCCC1(CCCCCCCC/C=C\C/C=C\CCCCC)OC[C@@H](CCN(C)C)O1 [XTC2, reference compound]				80 ± 28	237 ± 99
CCCCC(CC)C(=O)OCCCCCCCCCC(CCCCCCCCCOC(=O)C(CC)CCCC)OC(=O)CCCN(C)C (centres unmarked) [Compound 137, reference compound]				281 ± 203	588 ± 303
CCCCCCCCC(=O)N(CCCN1CCCC1)C(CCCCCCCCC(=O)OCC(CCCC)CCCCCC)CCCCCCCCC(=O)OCC(CCCC)CCCCCC (centres unmarked) [Compound 15]	6.32	2708 ± 924	15930 ± 4711		
CCCCCCCC(=O)N(CCCN1CCCC1)C(CCCCCCCCC(=O)OCC(CCCC)CCCCCC)CCCCCCCCC(=O)OCC(CCCC)CCCCCC (centres unmarked) [Compound 14]	6.33	2851 ± 438	15445 ± 3693		
CCCCCCCCC(CCCCCC)COC(=O)CCCCCC(CCCCCC(=O)OCC(CCCCCC)CCCCCCCC)N(CCCN(C)C)C(=O)CCCCCCC (centres unmarked) [Compound 39]	6.45	779 ± 82	5180 ± 2116		
CCCCCCCCC(=O)N(CCCN(C)C)C(CCCCCCCCCOC(=O)C(CCCC)CCCCCC)CCCCCCCCCOC(=O)C(CCCC)CCCCCC (centres unmarked) [Compound 17]	6.29	837 ± 260	6703 ± 689		
CCCCC/C=C\C/C=C\CCCCCCCCC(CCCCCCCC/C=C\C/C=C\CCCCC)N(CCCN(C)C)C(=O)CCCCCCC/C=C\C/C=C\CCCCC [Compound 6]	6.14	19 ± 4	211 ± 119		
CCCCCCCCC(=O)N(CCCN(C)C)C(CCCCCC(=O)OCC(CCCCCC)CCCCCCCC)CCCCCC(=O)OCC(CCCCCC)CCCCCCCC (centres unmarked) [Compound 38]	6.45	905 ± 443	5353 ± 2082		
CCCCCCCCC(=O)N(CCCN(C)C)C(CCCCCCCCC(=O)OCC(CCCCCC)CCCCCCCC)CCCCCCCCC(=O)OCC(CCCCCC)CCCCCCCC (centres unmarked) [Compound 13]	6.22	1537 ± 777	10907 ± 2032		
CCCCC/C=C\C/C=C\CCCCCCCCC(CCCCCCCC/C=C\C/C=C\CCCCC)N(CCCN(C)C)C(=O)CCCCCCCC(=O)OCC [Compound 37]	5.61				
CCCCCCCCC(=O)N(CCCN(C)C)C(CCCCCCCCCOC(=O)C(CCCCCC)CCCCCCCC)CCCCCCCCCOC(=O)C(CCCCCC)CCCCCCCC (centres unmarked) [Compound 36]	6.13	541 ± 91	4736 ± 980		
CCCCCC(CCCC)OC(=O)CCCCCCCC(=O)N(CCCN(C)C)C(CCCCCCCCC(=O)OC(CCCC)CCCC)CCCCCCCCC(=O)OC(CCCC)CCCC (centres unmarked) [Compound 24]	6.14	1120 ± 376	7425 ± 2810		
CCCCC/C=C\C/C=C\CCCCCCCCC(CCCCCCCC/C=C\C/C=C\CCCCC)N(CCCN(C)C)C(=O)C(CCCCCC)CCCCCCCC (centres unmarked) [Compound 8]	5.35	105 ± 98	1238 ± 153		
CCCCC/C=C\C/C=C\CCCCCCCCC(CCCCCCCC/C=C\C/C=C\CCCCC)OC(=O)CCN(C)C [MC2, reference compound]				4 ± 1	
CCCCCCCCCCC(CCCCCCCC)COC(=O)CCCCCC(CCCCCC(=O)OCC(CCCCCCCC)CCCCCCCCCC)N(CCCN(C)C)C(=O)CCCCCCCC (centres unmarked) [Compound 41]		832 ± 298	7437 ± 1612		
CCCCCC/C=C\C/C=C\COC(=O)CCCCCCCC(CCCCCCCC(=O)OC/C=C\CCCCCC)OC(=O)CCCN(C)C (centres unmarked) [319 (2% PEG), reference compound]				258 ± 67	681 ± 203
CCCCC/C=C\C/C=C\CCCCCCCCC(CCCCCCCC/C=C\C/C=C\CCCCC)OC(=O)CCCCN(C)C [MC4, reference compound]				41 ± 10	
CCCCC/C=C\C/C=C\CCCCCCCCOCC(CN(C)C)OCCCCCCCC/C=C\C/C=C\CCCCC (centres unmarked) [DLinDMA, reference compound]				13 ± 3	67 ± 20
